Assay results reported in patent US20120034608A1, “MICRORNA AS A BIOMARKER OF PANCREATIC ISLET BETA-CELL ENGAGEMENT” (Merck Sharp & Dohme Corp., priority 2009, published 2012).

Assays:
Assay type in all cases: cell-based, rat
INS-1 832/3 cells [1] = assay: TAQMAN real-time quantitative RT-PCR of miRNA expression in INS-1 832/3 cells; settings: for increase of the corresponding miRNA transcripts after transfection of precursor: overexpression experiments, TAQMAN real-time quantitative RT-PCR
Protocol: INS-1 832/3 and 832/13 cells were maintained in RPMI 1640 with 10% FBS and 11 mM glucose. For GLP-1 treatment, GLP-1 (7-37) amide (ABCHEM) was added in the media in the presence of 16 mM glucose for 24 hours. Total RNA was extracted with TRIZOL as in Example 1. Rat islet isolation and treatment was as follows. Pancreatic islets of Langerhans were isolated from the pancreas of normal Sprague-Dawley rats (Charles River, Ind.) by collagenase digestion and discontinuous Ficoll gradient separation (15). Islets were cultured for 2 hours in RPMI 1640 medium with 11 mM glucose for recovery from the isolation process. Then 100-200 islets were treated with 50 nM GLP-1 in the media with 11 mM glucose for 24 hours. RNA was extracted with TRIZOL as in Example 1 for quantification of microRNA species.
Fluorogenic TAQMAN detector probes specific for miR-132 (Cat# TM457), miR-212 (Cat# TM515), miR-375 (Cat#TM564), and miR-217 (Cat#1133) were purchased from Applied Biosystems (Foster City, Calif.). The TAQMAN RT-PCR reactions were performed according to the manufacturer's instructions.
Relative miRNA levels for the miRNAs of interest were determined by real-time reverse transcription reaction using the ABI PRISM 7900 Sequence Detection System from Applied Biosystems (Foster City, Calif.) according to the manufacturer's protocol. Briefly, 10 ng of total RNA was mixed with 1 U MultiScribe Reverse Transcriptase, 0.25 U RNase Inhibitor, 3 μL hairpin-looped miRNA-specific RT primer, 1 mM dNTPs and 1× Reverse Transcription Buffer in a total volume of 15 μL. The mixture was incubated at 16° C. for 30 minutes, 42° C. for another 30 minutes, and the reaction was stopped by heating to 85° C. for 5 minutes. Real time PCR reaction was set up in 20 μL volume with 1.33 μL first strand cDNA, 1× TAQMAN MicroRNA Assay Mix and 1× TAQMAN Universal PCR Master Mix. After activation of the AMPLITAQ Gold DNA polymerase at 95° C. for 10 minutes, 40 cycles of two-step PCR were run (95° C. for 15 seconds and 60° C. for 60 seconds). Data were collected and analyzed with SDS v.2.2.2 software (Applied Biosystems). 4.5S RNA or U6 probe (Applied Biosystems) was used as a reference to determine the relative abundance of each miRNA in different samples. TAQMAN RT-PCR was performed according the manufacturer's instructions.
The absolute miRNA levels were determined by reverse transcription reactions in GeneAmp PCR system 9700 followed by amplification using the ABI PRISM 7900HT Sequence Detection System from Applied Biosystems (Foster City, Calif.) through 40 cycles. 4.5S RNA (H) probe (Cat#TM1716) or U6 (Cat#TM1973) was used as reference to determine the relative abundance of each miRNA in different samples. The induction of miR-132 and miR-212 expression by GLP-1 started around 4 hour post-GLP-1 treatment, peaked at 24 hours and was sustained up to 48 hours (FIG. 2).

INS-1 832/13 cells [2] = assay: LANCE cAMP assay in INS-1 832/13 cells; settings: for cAMP levels: cells overexpressing the precursor vs scramble control
Text: (§1) We overexpressed the precursors of miR-132 and miR-212 to evaluate their possible contribution to β-cell function. MicroRNA miR-375 was included as a control as it been reported to have an inhibitory effect on GDIS (Poy et al., Nature 432: 226-230 (2004)). Chemically modified Pre-miR™ miRNA precursor molecules and Anti-miR™ miRNA inhibitors were purchased from Ambion (Foster City, Calif.). miRCURY LNA™ microRNA knockdown oligonucleotides were purchased from Exiqon (Woburn, Mass.). The oligonucleotide molecules were delivered to the cells by the Nucleofector Device (Amaxa, Gaithersburg, Md.). In brief, INS-1 cells were trypsinized, centrifuged, and resuspended in 100 μl Nucleofector solution V. Then 100-500 pmole RNA oligonucleotides were transfected to 3-million cells at the concentration of 1-5 μM with the Amaxa Nucleofector Device. Scramble controls from the vendors were used with the same transfection method. After electroporation, the cells were transferred to regular culture medium and then split into replicates in 96-well plates. Insulin secretion assay or LANCE cAMP assay were performed 48 hours post electroporation.
(§2) For the Lance cAMP assay, INS1 832/3 and 832/13 cells were grown to near confluency in flasks. 9000 cells were incubated with GLP-1 or Exendin-4 in stimulation buffer at concentrations as indicated in figure legends for 1 hour at 37° C. cAMP levels were measured using LANCE cAMP assay kit in 384-well format according to manufacture's protocol (Perkin Elmer, Waltham, Mass.). Counts were calculated to cAMP concentrations using a cAMP standard curve. Each condition was measured in quadruplicate.

INS-1 832/3 cells [3] = assay: glucose dependent insulin secretion (GDIS) assay in INS-1 832/3 cells; settings: for basal insulin secretion at low glucose: 2 mM glucose; for basal insulin secretion at low glucose / insulin release stimulated by KCl / insulin release as percentage of insulin secretion of intracellular insulin content / glucose-dependent insulin secretion (GDIS): 48 hours post-transfection; for GLP-1 potentiation of GDIS: 16 mM glucose + 10 nM GLP-1, 48 hour post transfection; for GLP-1 potentiation of GDIS / glucose-dependent insulin secretion (GDIS): vs scramble control; for insulin release stimulated by KCl: 30 mM KCl; for glucose-dependent insulin secretion (GDIS): two hour incubation in KRB; for insulin content: cell lysates, normalized to total protein
Text: as §1
(§3) INS-1 cell glucose dependent insulin secretion (GDIS) assay was performed as follows. The GDIS assay was performed with cells grown to near confluency in 96-well plates. Prior to the assay, cells were washed once with PBS and pre-incubated for two hours in freshly prepared Krebs-Ringer Bicarbonate (KRB) medium without glucose. The medium were then replaced with KRB with 2, 8 or 16 mM glucose or along with 10 nM GLP-1. The cells were incubated for another two hours in a CO2 incubator. The media was then removed at the end of incubation, and assayed for insulin levels by Ultra-sensitive Rat Insulin ELISA kit (ALPCO, Salem, N.H.) or insulin immunoassay by Gyrolab workstation (GYROS AB, Uppsala, Sweden). Intracellular insulin was extracted by acid ethanol method for measuring intracellular insulin content. Total protein was measured by Pierce 660 nm Protein Assay from Pierce Biotechnology, Inc. (Rockford, Ill.).

INS-1 832/13 cells [4] = assay: glucose dependent insulin secretion (GDIS) assay in INS-1 832/13 cells; settings: transfected cells vs scramble control
Text: as §1, §3

INS-1 832/3 cells [5] = assay: TAQMAN quantification of insulin (Ins1) transcripts in INS-1 832/3 cells; settings: normalized to β-actin
Text: as §1
We further measured the insulin content and found it was unchanged by miR-132 or miR-212 overexpression (FIG. 7B). […] Furthermore, we measured insulin transcripts by TAQMAN analysis in cells over-expressing these microRNA molecules. Ins1 TAQMAN probe from Applied Biosystems (Foster City, Calif.) was used to measure insulin transcript levels and normalized to β-actin. […] In this series of experiments, miR-132, miR-212 and miR-375 transcripts were increased by about 1000-fold, 2000-fold, and 8-fold, respectively, as assayed by TAQMAN real-time quantitative RT-PCR.

INS-1 832/3 cells [6] = assay: LANCE cAMP assay in INS-1 832/3 cells; settings: one hour stimulation, 5.5 mM glucose
Protocol: as §2

[7] = 50 nM GLP-1, 50 nM Exendin-4, 5 μM IBMX, 1 μM Foskolin (FIG. 6A)

Row | Substance | increase of the corresponding miRNA transcripts after transfection of precursor (INS-1 832/3 cells [1]) | cAMP levels (INS-1 832/13 cells [2]) | basal insulin secretion at low glucose (INS-1 832/3 cells [3]) | GLP-1 potentiation of GDIS (INS-1 832/3 cells [3]) | insulin release stimulated by KCl (INS-1 832/3 cells [3]) | insulin release as percentage of insulin secretion of intracellular insulin content (INS-1 832/3 cells [3]) | glucose-dependent insulin secretion (GDIS) (INS-1 832/3 cells [3]) | insulin content (INS-1 832/3 cells [3]) | effect of GLP-1 (GLP-1 potentiation) (INS-1 832/13 cells [4]) | insulin secretion (GDIS) (INS-1 832/13 cells [4]) | insulin (Ins1) transcripts (INS-1 832/3 cells [5]) | miR-132 expression (INS-1 832/3 cells [1]; [7]) | miR-212 expression (INS-1 832/3 cells [1]; [7]) | miR-375 expression (INS-1 832/3 cells [1]; [7]) | cAMP accumulation (INS-1 832/3 cells [6]) | cAMP accumulation (INS-1 832/13 cells [2]; one hour stimulation, 5.5 mM glucose)
1 | miR-212: chemically modified Pre-miR miRNA precursor molecule (Ambion) transfected to overexpress miR-212 (guide UAACAGUCUCCAGUCACGGCC; chemically modified Pre-miR precursor, pattern not given here) | ~2000 fold | no changes | unchanged | enhanced | significantly enhanced | significantly increased | significantly enhanced | unchanged | augmented | significantly increased | no effect |  |  |  |  | 
2 | Exendin-4: GLP-1 analog, cAMP raising agent |  |  |  |  |  |  |  |  |  |  |  | significantly increased | significantly increased | remained unchanged | dose-dependent accumulation | loss of such response
3 | miR-132: chemically modified Pre-miR miRNA precursor molecule (Ambion) transfected to overexpress miR-132 (guide UAACAGUCUACAGCCAUGGUCG; chemically modified Pre-miR precursor, pattern not given here) | about 1000 fold | no changes | unchanged | robustly increased | significantly enhanced | significantly increased | significantly enhanced | unchanged | augmented | significantly increased | no effect |  |  |  |  | 
4 | miR-375: chemically modified Pre-miR miRNA precursor molecule (Ambion) transfected to overexpress miR-375, control (guide UUUGUUCGUUCGGCUCGCGUGA; chemically modified Pre-miR precursor, pattern not given here) | ~8 fold |  |  | not |  | decreased | significantly suppressed | reduction |  |  | moderately down-regulated |  |  |  |  | 
